These results are taken from ChEMBL document CHEMBL1125941, “(2,3)--methylenepenicillanic acid sulfone: synthesis and -lactamase inhibiting properties” (Bioorg Med Chem Lett, 1991).

Type in all cases: functional, organism-based
One experiment has as its system Enterobacter cloacae. Briefly: Compound was evaluated for the inhibition of Enterobacter cloacae P99 cephalosporinase.
A further experiment concerns Escherichia coli. The experiment is described as follows: Compound was evaluated for the inhibition of Escherichia coli TEM-1 enzyme.
The next experiment deals with Staphylococcus aureus. The experiment is described as follows: Compound was evaluated for the inhibition of Staphylococcus aureus penicillinase (PC1).

As to `C[C@]12C[C@@]1(C(=O)O)N1C(=O)C[C@H]1S2(=O)=O`, the results for the half-maximal inhibitory concentration (IC50) in the experiment with Enterobacter cloacae, in the experiment with Escherichia coli and in the experiment on Staphylococcus aureus were 322 µM, 2.5 µM and 14 µM, respectively.

Take `CC1(C)[C@H](C(=O)O)N2C(=O)C[C@H]2S1(=O)=O` [SULBACTAM]: the IC50 with Enterobacter cloacae came out at 20 µM; in the experiment on Escherichia coli it was 1.9 µM; in the experiment with Staphylococcus aureus, 6.8 µM.

With `C[C@@]12C[C@]1(C(=O)O)N1C(=O)C[C@H]1S2(=O)=O`, the concentration for half-maximal inhibition (IC50) was 12 µM in the experiment on Enterobacter cloacae, 406 µM with Escherichia coli and 548 µM in the experiment on Staphylococcus aureus.

One may read the IC50 as the concentration needed to halve the response being measured. Low values mean greater potency, high ones weaker potency.
